Calls of active or inactive are those of the source.
Legend:
[1] = target: T1, Rac GTPase-activating protein 1 (Homo sapiens, UniProt Q9H0H5); experiment: blockers of MgcRacGAP-driven Rac1 GTP hydrolysis – biochemical, ADP Hunter fluorescence, primary and confirmatory, confirmation (AID 624330); format: functional
T1 sequence (Q9H0H5 whole entry): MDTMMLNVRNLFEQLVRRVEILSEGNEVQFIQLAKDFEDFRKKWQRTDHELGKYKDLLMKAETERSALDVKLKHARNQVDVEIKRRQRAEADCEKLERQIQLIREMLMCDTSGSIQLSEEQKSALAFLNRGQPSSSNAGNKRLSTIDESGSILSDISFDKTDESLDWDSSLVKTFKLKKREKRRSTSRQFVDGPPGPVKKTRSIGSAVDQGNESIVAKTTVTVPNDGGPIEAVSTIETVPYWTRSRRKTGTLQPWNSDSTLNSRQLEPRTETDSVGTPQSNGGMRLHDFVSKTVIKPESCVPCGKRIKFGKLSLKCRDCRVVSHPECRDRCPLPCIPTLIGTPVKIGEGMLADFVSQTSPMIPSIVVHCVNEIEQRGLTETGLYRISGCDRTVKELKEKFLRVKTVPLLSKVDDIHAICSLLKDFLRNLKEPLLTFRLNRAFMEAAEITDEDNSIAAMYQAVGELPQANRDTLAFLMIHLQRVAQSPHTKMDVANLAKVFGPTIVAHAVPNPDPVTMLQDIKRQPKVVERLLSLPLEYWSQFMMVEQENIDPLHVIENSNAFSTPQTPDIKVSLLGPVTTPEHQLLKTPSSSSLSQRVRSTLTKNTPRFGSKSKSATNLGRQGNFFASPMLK

Cytochrome P450 2D6 = Cytochrome P450 2D6 (Homo sapiens, UniProt P10635);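 further: CYP2D6 member of a cytochrome P450 panel assay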
Sequence of Cytochrome P450 2D6 (P10635 whole entry): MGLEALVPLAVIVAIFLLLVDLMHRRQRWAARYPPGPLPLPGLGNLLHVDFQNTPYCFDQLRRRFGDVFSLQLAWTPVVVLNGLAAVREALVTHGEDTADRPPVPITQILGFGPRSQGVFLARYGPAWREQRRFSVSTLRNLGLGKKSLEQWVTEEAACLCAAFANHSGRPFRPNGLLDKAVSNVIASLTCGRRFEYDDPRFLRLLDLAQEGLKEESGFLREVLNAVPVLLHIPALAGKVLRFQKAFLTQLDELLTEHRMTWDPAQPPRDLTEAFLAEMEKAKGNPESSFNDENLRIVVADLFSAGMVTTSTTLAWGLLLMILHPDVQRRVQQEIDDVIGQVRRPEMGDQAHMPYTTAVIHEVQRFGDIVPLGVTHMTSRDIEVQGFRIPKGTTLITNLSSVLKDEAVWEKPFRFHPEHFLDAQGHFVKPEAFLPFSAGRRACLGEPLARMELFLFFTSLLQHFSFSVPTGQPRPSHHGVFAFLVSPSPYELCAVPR

Streptococcus = experiment: GAS UMAA2166 growth inhibition – luminescence, BacTiterGlo, counter-screen for streptokinase expression inhibitor project, dose response (AID 1915); format: functional, organism-based;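 further: potency for reduction of bacterial viability or growth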
[2] = test system: Streptococcus sp. 'group A'; experiment: Streptococcus pyogenes SK(-)GAS viability under kanamycin – luminescence, BacTiterGlo, confirmation, counter-screen for streptokinase expression inhibitor project, dose response (AID 1900); format: functional, organism-based
Streptokinase A = target: T2, Streptokinase A (Streptococcus pyogenes serotype M1, UniProt P10520); experiment: viability-normalized secreted streptokinase activity reduction – plasminogen activation absorbance, OD405, dose response (AID 1914); format: functional, Streptococcus pyogenes M1 GAS;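 further: secreted streptokinase activity via plasminogen activation per viability signal from cell pellet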
T2 sequence (P10520 whole entry): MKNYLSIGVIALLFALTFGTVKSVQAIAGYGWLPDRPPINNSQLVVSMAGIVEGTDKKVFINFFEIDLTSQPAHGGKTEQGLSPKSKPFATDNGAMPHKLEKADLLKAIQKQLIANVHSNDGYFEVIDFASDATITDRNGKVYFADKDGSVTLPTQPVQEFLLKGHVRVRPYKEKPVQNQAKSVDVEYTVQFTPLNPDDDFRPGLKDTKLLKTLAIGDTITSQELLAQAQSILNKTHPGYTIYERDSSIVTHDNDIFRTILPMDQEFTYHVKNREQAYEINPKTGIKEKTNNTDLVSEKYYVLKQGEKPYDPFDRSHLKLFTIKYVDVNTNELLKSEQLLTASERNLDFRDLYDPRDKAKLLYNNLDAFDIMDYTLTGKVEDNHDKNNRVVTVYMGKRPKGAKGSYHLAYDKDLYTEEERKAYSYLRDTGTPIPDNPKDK

[3] = Luminescence Cell-Based Dose Retest to Confirm Inhibitors of Cancer Stem Cells. [Related pubchem assays (depositor defined):AID2717, AID2721]; format: functional; conditions: Homo sapiens
Cytochrome P450 2C9 = Cytochrome P450 2C9 (Homo sapiens, UniProt P11712)
Sequence of Cytochrome P450 2C9 (P11712 whole entry): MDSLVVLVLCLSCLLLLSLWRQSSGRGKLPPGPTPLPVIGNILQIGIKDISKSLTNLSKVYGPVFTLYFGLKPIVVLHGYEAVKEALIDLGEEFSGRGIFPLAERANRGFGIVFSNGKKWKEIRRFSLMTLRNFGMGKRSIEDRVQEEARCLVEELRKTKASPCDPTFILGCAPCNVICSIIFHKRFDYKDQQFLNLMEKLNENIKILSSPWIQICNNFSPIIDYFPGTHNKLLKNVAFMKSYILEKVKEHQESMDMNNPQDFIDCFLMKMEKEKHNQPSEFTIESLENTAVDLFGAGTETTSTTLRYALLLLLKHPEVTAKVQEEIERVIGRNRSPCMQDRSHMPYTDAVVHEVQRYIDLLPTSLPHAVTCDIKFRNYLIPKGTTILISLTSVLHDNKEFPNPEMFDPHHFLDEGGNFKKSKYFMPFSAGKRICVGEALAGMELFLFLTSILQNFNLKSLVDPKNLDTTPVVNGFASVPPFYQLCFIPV

Cytochrome P450 1A2 = target: T3, Cytochrome P450 1A2 (Homo sapiens, UniProt P05177);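 further: PubChem cytochrome P450 panel assay, CYP1A2 panel member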
T3 sequence (P05177 whole entry): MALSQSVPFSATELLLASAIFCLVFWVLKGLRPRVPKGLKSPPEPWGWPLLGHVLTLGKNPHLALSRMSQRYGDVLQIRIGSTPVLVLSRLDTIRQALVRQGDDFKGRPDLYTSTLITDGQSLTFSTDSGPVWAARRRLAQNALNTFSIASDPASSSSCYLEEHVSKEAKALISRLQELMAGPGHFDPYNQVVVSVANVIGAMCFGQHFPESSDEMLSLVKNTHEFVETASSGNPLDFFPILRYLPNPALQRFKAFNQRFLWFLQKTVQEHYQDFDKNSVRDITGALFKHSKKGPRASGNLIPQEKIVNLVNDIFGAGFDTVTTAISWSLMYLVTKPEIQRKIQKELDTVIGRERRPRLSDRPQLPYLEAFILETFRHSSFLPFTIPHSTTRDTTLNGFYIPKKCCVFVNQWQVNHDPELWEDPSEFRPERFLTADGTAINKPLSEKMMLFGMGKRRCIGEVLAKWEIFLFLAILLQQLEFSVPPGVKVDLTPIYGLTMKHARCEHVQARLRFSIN

Cytochrome P450 3A4 = Cytochrome P450 3A4 (Homo sapiens, UniProt P08684);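 further: CYP3A4 tested as one member of a cytochrome P450 panel screen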
Sequence of Cytochrome P450 3A4 (P08684 whole entry): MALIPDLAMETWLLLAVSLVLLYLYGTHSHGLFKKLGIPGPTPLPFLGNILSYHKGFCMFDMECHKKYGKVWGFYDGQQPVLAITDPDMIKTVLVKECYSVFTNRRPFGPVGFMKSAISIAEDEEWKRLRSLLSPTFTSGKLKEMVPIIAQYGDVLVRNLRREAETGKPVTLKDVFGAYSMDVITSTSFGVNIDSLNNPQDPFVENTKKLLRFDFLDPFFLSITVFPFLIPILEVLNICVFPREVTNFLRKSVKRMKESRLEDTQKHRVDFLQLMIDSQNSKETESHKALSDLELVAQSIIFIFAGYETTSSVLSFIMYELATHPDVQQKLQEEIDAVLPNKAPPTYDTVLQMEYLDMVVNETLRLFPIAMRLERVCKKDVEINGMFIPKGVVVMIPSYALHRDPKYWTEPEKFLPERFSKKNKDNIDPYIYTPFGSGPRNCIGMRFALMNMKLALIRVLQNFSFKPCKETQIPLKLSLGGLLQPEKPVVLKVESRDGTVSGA

Cytochrome P450 2C19 = Cytochrome P450 2C19 (Homo sapiens, UniProt P33261); experiment: Cytochrome panel assay with activity outcomes. Panel member name: p450-cyp2c19 Compounds with AC50 equal or less than 10 uM are considered active; format: functional
Sequence of Cytochrome P450 2C19 (P33261 whole entry): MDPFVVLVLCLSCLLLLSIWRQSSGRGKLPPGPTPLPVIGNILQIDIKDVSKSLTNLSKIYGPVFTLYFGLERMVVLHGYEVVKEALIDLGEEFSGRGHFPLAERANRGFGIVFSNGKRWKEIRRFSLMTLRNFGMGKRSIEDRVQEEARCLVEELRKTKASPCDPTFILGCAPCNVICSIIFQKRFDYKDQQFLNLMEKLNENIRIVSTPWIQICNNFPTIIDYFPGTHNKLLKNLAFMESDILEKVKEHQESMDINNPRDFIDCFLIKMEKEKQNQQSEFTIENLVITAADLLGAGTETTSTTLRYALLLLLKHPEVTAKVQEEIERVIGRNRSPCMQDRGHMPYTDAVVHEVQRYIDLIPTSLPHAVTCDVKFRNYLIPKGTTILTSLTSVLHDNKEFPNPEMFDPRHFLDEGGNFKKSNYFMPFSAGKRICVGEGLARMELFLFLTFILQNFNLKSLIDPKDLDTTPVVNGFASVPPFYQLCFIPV

In the case of `O=C(CN1CCN(c2ccc(O)cc2)CC1)NCC(=O)Nc1ccc(F)c(F)c1F`, the IC50 [1] is reported as 47 µM (active).

With `COC(=O)CSc1nnc(C)n1-c1cccc(OC)c1` the AC50 (Cytochrome P450 2D6) was 3.16 µM (inconclusive).

For `c1ccc(-c2cc(-c3ccncc3)nc3ccc4ccccc4c23)cc1`, the EC50 (Streptococcus) was 8.51 µM (active), the EC50 [2] was 3.37 µM (active) and the EC50 (Streptokinase A) was > 150 µM (not active). The AC50 [3] was 3.39 µM (active).

With `Fc1ccccc1OCCCCSc1ncccn1` the AC50 (Cytochrome P450 2D6) was 17.8 µM (inconclusive).

For `Cc1c(O)ccc(NC(=O)/C=C/c2ccccc2)c1C`, the IC50 [1] was 41.8 µM (active).

With `c1cncc(-c2cncnc2NCc2cccs2)c1` the AC50 (Cytochrome P450 2D6) was 39.8 µM (inconclusive).

For `COc1cccc(-c2cncnc2Nc2ccc(F)cc2)c1`, the AC50 (Cytochrome P450 2D6) was 39.8 µM (inconclusive).

With `CC1CCC/C(=C\c2ccc(O)cc2)C1=O` (stereo not given) the IC50 [1] was 26.6 µM (active).

With `O=C(O)c1cc2cc(OCc3ccccc3)ccc2[nH]1` the AC50 (Cytochrome P450 2C9) was 25.1 µM (inconclusive) and the AC50 (Cytochrome P450 1A2) was 6.31 µM (inconclusive).

For `Cc1cc(-c2c(C)[nH]n(-c3ccc(Cl)cc3)c2=O)n[nH]1`, the EC50 (Streptokinase A) was > 150 µM (not active).

For `O=C(/C(=N\Nc1ccc([N+](=O)[O-])cc1)Sc1nnnn1-c1ccccc1)c1ccccc1`, the EC50 (Streptococcus) was 35.8 µM (active), the EC50 [2] was 5.19 µM (active) and the EC50 (Streptokinase A) was > 150 µM (not active).

For `O=C(CNC(=O)c1ccncc1)N/N=C/c1ccc(O)cc1O`, the IC50 [1] was 75.5 µM (active).

For `CC(C)(C)c1nnc(N/N=C/c2ccc(O)cc2)n(N)c1=O`, the IC50 [1] was 123 µM (active).

For `N[C@@H](COP(=O)(O)O)C(=O)O` [DEXFOSFOSERINE], the AC50 (Cytochrome P450 3A4) was 0.794 µM (inconclusive), the AC50 (Cytochrome P450 2C19) was “inconclusive” and the AC50 (Cytochrome P450 1A2) was 25.1 µM (inconclusive).

For `C[C@]12CC[C@@H]3c4ccc(OC(=O)c5ccccc5)cc4CC[C@H]3[C@@H]1CC[C@@H]2O` [ESTRADIOL BENZOATE], the EC50 (Streptococcus) was 4.49 µM (active), the EC50 [2] was 2.24 µM (active) and the EC50 (Streptokinase A) was 2.43 µM (active).

— ChEMBL document CHEMBL1201862, “PubChem BioAssay data set” (2004)
